# According to patent US20230102554A1 (GB002, INC., priority 2019, published 2023):
# Tests used:
# [1] = biological target: T1, Human PDGFRα, cytoplasmic domain (GST-PDGFRα) (Homo sapiens, UniProt P16234); test: Human PDGFRα biochemical inhibition assay (off-chip Mobility Shift Assay)
# T1 construct: made in house
# [2] = biological target: T2, Human PDGFRβ, cytoplasmic domain (GST-PDGFRβ) (Homo sapiens, UniProt P09619); test: Human PDGFRβ biochemical inhibition assay (off-chip Mobility Shift Assay)
# T2 construct: made in house
# In short: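 GST-tagged cytoplasmic domain (aa 557-1106) from baculovirus was incubated 1 h at room temperature with compound, CSKtide, ATP at Km and Mg²⁺ in HEPES buffer, pH 7.5. Phosphorylated and unphosphorylated peptide were separated by off-chip mobility shift, and the product ratio P/(P+S) gave percent inhibition.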
# T1 sequence (P16234 550-1089 T674I): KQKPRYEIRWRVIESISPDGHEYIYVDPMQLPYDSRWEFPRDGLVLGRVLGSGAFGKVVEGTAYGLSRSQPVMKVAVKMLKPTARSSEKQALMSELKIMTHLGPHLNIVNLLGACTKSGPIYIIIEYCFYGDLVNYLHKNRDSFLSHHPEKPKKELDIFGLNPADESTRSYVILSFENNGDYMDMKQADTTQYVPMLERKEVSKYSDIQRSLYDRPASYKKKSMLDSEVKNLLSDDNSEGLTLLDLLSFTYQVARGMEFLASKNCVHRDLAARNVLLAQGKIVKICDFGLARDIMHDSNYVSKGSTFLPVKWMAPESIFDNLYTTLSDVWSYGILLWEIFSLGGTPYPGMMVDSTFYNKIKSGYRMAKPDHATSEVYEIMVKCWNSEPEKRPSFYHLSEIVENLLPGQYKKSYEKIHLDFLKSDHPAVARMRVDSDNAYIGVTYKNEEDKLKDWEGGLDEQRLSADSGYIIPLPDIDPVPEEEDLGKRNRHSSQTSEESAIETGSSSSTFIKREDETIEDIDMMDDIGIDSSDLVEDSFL
# T2 sequence (P09619 with tags, fused parts or gaps): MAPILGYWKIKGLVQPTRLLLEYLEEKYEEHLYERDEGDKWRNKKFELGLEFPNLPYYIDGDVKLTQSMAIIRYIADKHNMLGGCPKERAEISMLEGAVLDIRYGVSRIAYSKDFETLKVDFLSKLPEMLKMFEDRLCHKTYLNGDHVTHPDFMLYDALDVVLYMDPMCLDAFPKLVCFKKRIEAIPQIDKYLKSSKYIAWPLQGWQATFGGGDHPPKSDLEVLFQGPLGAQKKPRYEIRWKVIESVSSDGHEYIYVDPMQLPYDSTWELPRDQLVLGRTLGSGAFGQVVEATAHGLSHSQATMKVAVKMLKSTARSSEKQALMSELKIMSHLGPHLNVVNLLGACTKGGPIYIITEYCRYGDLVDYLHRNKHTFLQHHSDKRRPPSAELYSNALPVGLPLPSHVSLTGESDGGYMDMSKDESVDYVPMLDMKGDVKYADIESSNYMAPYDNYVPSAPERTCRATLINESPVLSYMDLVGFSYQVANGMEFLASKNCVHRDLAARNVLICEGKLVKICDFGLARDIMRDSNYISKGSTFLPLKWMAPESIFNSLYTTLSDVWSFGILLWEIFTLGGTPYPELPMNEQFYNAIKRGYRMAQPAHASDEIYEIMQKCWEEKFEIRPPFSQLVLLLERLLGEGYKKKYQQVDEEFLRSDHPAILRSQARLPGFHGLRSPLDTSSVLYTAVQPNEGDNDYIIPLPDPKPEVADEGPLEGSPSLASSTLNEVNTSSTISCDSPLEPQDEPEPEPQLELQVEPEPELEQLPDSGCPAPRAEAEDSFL
SMILES,IC50 [1],IC50 [2]
"CCn1cc2ncc(N[C@@H](C)c3cccc(NC(=O)Cc4ccc(C5CCC5)cn4)c3)nc2n1 [Compound 711, (S)-2-(5-cyclobutylpyridin-2-yl)-N-(3-(1-((2-ethyl-2H-pyrazolo[3,4-b]pyrazin-6-yl)amino)ethyl)phenyl)acetamide]",< 300 nM,≥ 1000 nM
"C[C@H](Nc1cnc2ccoc2n1)c1cc(NC(=O)c2ccc(C(F)(F)F)nc2)ccc1F [Compound 617, (S)-N-(4-fluoro-3-(1-(furo[2,3-b]pyrazin-3-ylamino)ethyl)phenyl)-6-(trifluoromethyl) nicotinamide]",< 300 nM,< 300 nM
"CC(C)c1cc(C(=O)Nc2cccc([C@H](C)Nc3cnc4[nH]ncc4n3)c2)no1 [Compound 530, (S)-N-(3-(1-((1H-pyrazolo[3,4-b]pyrazin-5-yl)amino)ethyl)phenyl)-5-isopropylisoxazole-3-carboxamide]",< 300 nM,< 300 nM
"CCn1cc2ncc(N[C@@H](C)c3cccc(NC(=O)Nc4ccc(OC(F)(F)F)nc4)c3)nc2n1 [Compound 407, (S)-1-(3-(1-((2-ethyl-2H-pyrazolo[3,4-b]pyrazin-6-yl)amino)ethyl)phenyl)-3-(6-(trifluoromethoxy)pyridin-3-yl) urea]",< 300 nM,< 300 nM
"Cc1n[nH]c2ncc(N[C@@H](C)c3cccc(NC(=O)c4cc(C(F)(F)F)n(C)n4)c3)nc12 [Compound 547, (S)-1-methyl-N-(3-(1-((3-methyl-1H-pyrazolo[3,4-b]pyrazin-5-yl)amino)ethyl)phenyl)-5-(trifluoromethyl)-1H-pyrazole-3-carboxamide]",< 300 nM,< 300 nM
"CCn1cc2ncc(N[C@@H](C)c3cc(NC(=O)Cc4ccccc4)ccc3F)nc2n1 [Compound 637, (S)-N-(3-(1-((2-ethyl-2H-pyrazolo[3,4-b]pyrazin-6-yl)amino)ethyl)-4-fluorophenyl)-2-phenylacetamide]",< 300 nM,< 300 nM
"CCn1cc2ncc(N[C@@H](C)c3cccc(NC(=O)Cc4ccc(Cl)c(F)c4)c3)nc2n1 [Compound 627, (S)-2-(4-chloro-3-fluorophenyl)-N-(3-(1-((2-ethyl-2H-pyrazolo[3,4-b]pyrazin-6-yl)amino)ethyl)phenyl)acetamide]",< 300 nM,300 to 1000 nM
"CCn1cc2ncc(N[C@@H](C)c3cc(NC(=O)Cc4ccc(C(C)(C)F)cn4)ccc3F)nc2n1 [Compound 683, (S)-N-(3-(1-((2-ethyl-2H-pyrazolo[3,4-b]pyrazin-6-yl)amino)ethyl)-4-fluorophenyl)-2-(5-(2-fluoropropan-2-yl)pyridin-2-yl)acetamide]",300 to 1000 nM,≥ 1000 nM
"CCn1cc2ncc(N[C@@H](C)c3cccc(NC(=O)Cc4cccc(C)c4)c3)nc2n1 [Compound 622, (S)-N-(3-(1-((2-ethyl-2H-pyrazolo[3,4-b]pyrazin-6-yl)amino)ethyl)phenyl)-2-(m-tolyl) acetamide]",< 300 nM,< 300 nM
"CC(=O)OC(C)OC(=O)c1ccc(C(=O)Nc2cccc([C@H](C)Nc3cnc4cnn(C)c4n3)c2)cc1C (stereo partly drawn) [Compound 256, 1-acetoxyethyl 2-methyl-4-((3-((S)-1-((1-methyl-1H-pyrazolo[3,4-b]pyrazin-6-yl)amino)ethyl)phenyl)carbamoyl) benzoate]",< 300 nM,< 300 nM
"C[C@H](Nc1cnc2[nH]ccc2n1)c1cccc(NC(=O)c2ccc(C3CC3)nc2)c1 [Compound 594, (S)-N-(3-(1-((5H-pyrrolo[2,3-b]pyrazin-2-yl)amino)ethyl)phenyl)-6-cyclopropylnicotinamide]",< 300 nM,< 300 nM
"Cc1cncc(C(=O)Nc2cccc([C@H](C)Nc3cnn4ccc(-c5cnn(C)c5)cc34)c2)c1 [Compound 745, (S)-5-methyl-N-(3-(1-((5-(1-methyl-1H-pyrazol-4-yl)pyrazolo[1,5-a]pyridin-3-yl)amino)ethyl)phenyl) nicotinamide]",≥ 1000 nM,≥ 1000 nM
"CCn1cc2ncc(N[C@@H](C)c3cc(NC(=O)Cc4ccc(C5CCC5)nc4)ccc3C)nc2n1 [Compound 672, (S)-2-(6-cyclobutylpyridin-3-yl)-N-(3-(1-((2-ethyl-2H-pyrazolo[3,4-b]pyrazin-6-yl)amino)ethyl)-4-methylphenyl) acetamide]",< 300 nM,≥ 1000 nM
"CCn1cc2ncc(N[C@@H](C)c3cc(NC(=O)c4ccc(N5CCN(C)CC5)c(Cl)c4)ccc3F)nc2n1 [Compound 413, (S)-3-chloro-N-(3-(1-((2-ethyl-2H-pyrazolo[3,4-b]pyrazin-6-yl)amino)ethyl)-4-fluorophenyl)-4-(4-methylpiperazin-1-yl) benzamide]",< 300 nM,< 300 nM
"CCn1cc2ncc(N[C@@H](C)c3cc(NC(=O)c4cnc5c(c4)CCCO5)ccc3F)nc2n1 [Compound 59, (S)-N-(3-(1-((2-ethyl-2H-pyrazolo[3,4-b]pyrazin-6-yl)amino)ethyl)-4-fluorophenyl)-3,4-dihydro-2H-pyrano[2,3-b] pyridine-6-carboxamide]",< 300 nM,< 300 nM

# Results, then the molecule that gave them:
IC50 [1],IC50 [2],SMILES
< 300 nM,< 300 nM,"COc1ncc(C(=O)Nc2cccc([C@H](C)Nc3cnc4cnn(C)c4n3)c2)cc1Cl [Compound 187, (S)-5-chloro-6-methoxy-N-(3-(1-((1-methyl-1H-pyrazolo[3,4-b]pyrazin-6-yl)amino)ethyl)phenyl)nicotinamide]"
< 300 nM,< 300 nM,"Cc1cncc(C(=O)Nc2cccc([C@H](C)Nc3cnc4cc(C(F)(F)F)ccc4n3)c2)c1 [Compound 35, (S)-5-methyl-N-(3-(1-((6-(trifluoromethyl)quinoxalin-2-yl)amino)ethyl)phenyl) nicotinamide]"
< 300 nM,300 to 1000 nM,"CCn1ccc2ncc(N[C@@H](C)c3cccc(NC(=O)c4cncc(C)c4)c3)nc21 [Compound 82, (S)-N-(3-(1-((5-ethyl-5H-pyrrolo[2,3-b]pyrazin-3-yl)amino)ethyl)phenyl)-5-methylnicotinamide]"
< 300 nM,300 to 1000 nM,"Cc1cncc(C(=O)Nc2cc(F)cc(C(C)Nc3cnc4cnn(C)c4n3)c2)c1 (stereo not drawn) [Compound 170, N-(3-fluoro-5-(1-((1-methyl-1H-pyrazolo[3,4-b]pyrazin-6-yl)amino)ethyl)phenyl)-5-methylnicotinamide]"
< 300 nM,< 300 nM,"Cc1cc(C(=O)Nc2cccc([C@H](C)Nc3cnc4cnn(C)c4n3)c2)ccc1O [Compound 240, (S)-4-hydroxy-3-methyl-N-(3-(1-((1-methylH-pyrazolo[3,4-b]pyrazin-6-yl)amino)ethyl)phenyl)benzamide]"
< 300 nM,< 300 nM,"CCn1cc2ncc(N[C@@H](C)c3cccc(NC(=O)c4ccc(N5CCOCC5)c(Cl)c4)c3)nc2n1 [Compound 360, (S)-3-chloro-N-(3-(1-((2-ethyl-2H-pyrazolo[3,4-b]pyrazin-6-yl)amino)ethyl)phenyl)-4-morpholinobenzamide]"
< 300 nM,300 to 1000 nM,"CCn1cc2ncc(N[C@@H](C)c3cccc(NC(=O)c4ccc(C(=O)N5CCN(C)CC5)c(Cl)c4)c3)nc2n1 [Compound 466, (S)-3-chloro-N-(3-(1-((2-ethyl-2H-pyrazolo[3,4-b]pyrazin-6-yl)amino)ethyl)phenyl)-4-(4-methylpiperazine-1-carbonyl) benzamide]"
< 300 nM,< 300 nM,"Cc1cc(C(=O)Nc2cccc([C@H](C)Nc3cnc4cnn(C)c4n3)c2)cnc1CN1CCOCC1 [Compound 239, (S)-5-methyl-N-(3-(1-((1-methyl-1H-pyrazolo[3,4-b]pyrazin-6-yl)amino)ethyl)phenyl)-6-(morpholinomethyl) nicotinamide]"
< 300 nM,< 300 nM,"CC(C)Cn1ccc(C(=O)Nc2cccc([C@H](C)Nc3cnc4cnn(C)c4n3)c2)n1 [Compound 157, (S)-1-isobutyl-N-(3-(1-((1-methyl-1H-pyrazolo[3,4-b]pyrazin-6-yl)amino)ethyl)phenyl)-1H-pyrazole-3-carboxamide]"
< 300 nM,< 300 nM,"C[C@H](Nc1cnc2cnn(C)c2n1)c1cccc(NC(=O)c2ccc(C(F)(F)F)s2)c1 [Compound 137, (S)-N-(3-(1-((1-methyl-1H-pyrazolo[3,4-b]pyrazin-6-yl)amino)ethyl)phenyl)-5-(trifluoromethyl)thiophene-2-carboxamide]"
< 300 nM,< 300 nM,"C[C@H](Nc1cnc2cnn(C)c2n1)c1cccc(NC(=O)c2ccc(OC(F)F)nc2)c1 [Compound 118, (S)-6-(difluoromethoxy)-N-(3-(1-((1-methyl-1H-pyrazolo[3,4-6]pyrazin-6-yl)amino)ethyl)phenyl)nicotinamide]"
< 300 nM,< 300 nM,"Cc1cncc(C(=O)Nc2cccc([C@H](C)Nc3cnc4[nH]cc(C)c4n3)c2)c1 [Compound 15, (S)-5-methyl-N-(3-(1-((7-methyl-5H-pyrrolo[2,3-b]pyrazin-2-yl)amino)ethyl)phenyl)nicotinamide]"
< 300 nM,< 300 nM,"CCn1cc2ncc(N[C@@H](C)c3cccc(NC(=O)c4ccc(CN5CCN(C)CC5)cc4)c3)nc2n1 [Compound 376, (S)-N-(3-(1-((2-ethyl-2H-pyrazolo[3,4-b]pyrazin-6-yl)amino)ethyl)phenyl)-4-((4-methylpiperazin-1-yl)methyl) benzamide]"
< 300 nM,< 300 nM,"C[C@H](Nc1cnc2cnn(C)c2n1)c1cccc(NC(=O)c2cncc(C(F)(F)F)c2)c1 [Compound 102, (S)-N-(3-(1-((1-methyl-1H-pyrazolo[3,4-b]pyrazin-6-yl)amino)ethyl)phenyl)-5-(trifluoromethyl)nicotinamide]"
< 300 nM,< 300 nM,"CCn1cc2ncc(N[C@@H](C)c3cccc(NC(=O)c4ccc(CN5CCCC5)c(Cl)c4)c3)nc2n1 [Compound 418, (S)-3-chloro-N-(3-(1-((2-ethyl-2H-pyrazolo[3,4-b]pyrazin-6-yl)amino)ethyl)phenyl)-4-(pyrrolidin-1-ylmethyl) benzamide]"
